# Assay results from publication PMC7854658, “Structural basis for ligand recognition of the neuropeptide Y Y2 receptor” (Nature Communications, 2021).
# Numbering of substitutions follows the chain as printed. Several values for one entry are separate records, joined by “and”; a condition that tells them apart may be missing. Equal entries are not always repeated.
# Experiments:
# Test in all cases: NPY-induced IP accumulation (IP-One), mutant
# Type in all cases: cell-based
# Y2R mutant T308^7.36A = target: T1, Y2R mutant T308^7.36A (Homo sapiens, UniProt P49146, T308A)
# T1 construct: expressed in transfected cells; host or cells: HEK293
# T1 sequence (P49146 1-381 T308A): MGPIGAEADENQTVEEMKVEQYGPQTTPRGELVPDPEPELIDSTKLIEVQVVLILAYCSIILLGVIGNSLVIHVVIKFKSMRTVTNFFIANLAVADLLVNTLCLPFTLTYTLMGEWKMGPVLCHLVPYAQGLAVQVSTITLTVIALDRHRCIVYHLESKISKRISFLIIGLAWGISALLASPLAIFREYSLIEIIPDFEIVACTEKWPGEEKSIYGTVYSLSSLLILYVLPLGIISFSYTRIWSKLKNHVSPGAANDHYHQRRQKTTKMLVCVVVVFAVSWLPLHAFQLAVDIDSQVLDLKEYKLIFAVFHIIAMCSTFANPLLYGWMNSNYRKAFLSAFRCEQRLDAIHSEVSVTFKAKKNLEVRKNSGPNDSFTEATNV
# Experimental: (§1) The plasmid hY2R_eYFP_pVitro2 encoding the WT Y2R and a fluorophore for investigating the receptor localization was used as template for the generation of receptor point mutations as previously described. Mutagenesis PCR was performed using the Phusion High-Fidelity Polymerase (Thermo Fisher Scientific, Waltham, MA, USA). […] The preparations of the plasmid DNA were performed using the Wizard plus Mini or Midi DNA purification kit (Promega, Madison, WI, USA).
# (§2) To determine the contribution of residues to antagonist binding, IP-One accumulation assays (Cisbio, Codolet, France) were performed. HEK293 cells were seeded into six-well plates and transiently cotransfected with 3200 ng of receptor plasmid DNA and 800 ng of the chimeric G protein (Gα∆6qi4myr) to redirect the Gαi signaling pathway to the Gαq phospholipase C pathway. Transient transfection was carried out using Metafectene as transfection reagent according to the manufacturer’s protocol (Biontex, Munich, Germany) over night. The cells were then reseeded into white 384-well microplates (Greiner Bio-One, Kremsmünster, Austria) at a density of 15,000 cells per well and grown for additional 24 h.
# (§3) All dilutions were performed in HBSS containing 20 mM LiCl (stimulation buffer) and DMSO with a final concentration of 0.01%.
# (§4) To determine the amount of cellular IPs, the FRET acceptor (IP1-d2) and the FRET donor (anti-IP1-Cryptate) were reconstituted and diluted in lysis and detection buffer (1:20) as described in the manufacturer’s protocol. Three microliters of both solutions were added, and the cells were incubated on a tumbler for 60 min.
# Y2R mutant D292^6.59N = target: T2, Y2R mutant D292^6.59N (Homo sapiens, UniProt P49146, D292N)
# T2 construct: expressed in transfected cells; host or cells: HEK293
# T2 sequence (P49146 1-381 D292N): T1 sequence (P49146 1-381 T308A) with D292N, A308T
# Experimental: as §1, §2, §3, §4
# Y2R mutant S223^5.42A = target: T3, Y2R mutant S223^5.42A (Homo sapiens, UniProt P49146, S223A); conditions: 1 μM antagonist, source data Fig. 3
# T3 construct: expressed in transfected cells; host or cells: HEK293
# Experimental: as §1, §2, §3, §4
# Y2R mutant V134^3.36A = target: T4, Y2R mutant V134^3.36A (Homo sapiens, UniProt P49146, V134A)
# T4 construct: expressed in transfected cells; host or cells: HEK293
# T4 sequence (P49146 1-381 V134A): T1 sequence (P49146 1-381 T308A) with V134A, A308T
# Experimental: as §1, §2, §3, §4
# Y2R mutant Y110^2.64A = target: T5, Y2R mutant Y110^2.64A (Homo sapiens, UniProt P49146, Y110A); conditions: 1 μM antagonist, source data Fig. 3
# T5 construct: expressed in transfected cells; host or cells: HEK293
# Experimental: as §1, §2, §3, §4
# Y2R mutant W281^6.48T = target: T6, Y2R mutant W281^6.48T (Homo sapiens, UniProt P49146, W281T)
# T6 construct: expressed in transfected cells; host or cells: HEK293
# T6 sequence (P49146 1-381 W281T): T1 sequence (P49146 1-381 T308A) with W281T, A308T
# Experimental: as §1, §2, §3, §4
# Y2R mutant L183^4.60A = target: T7, Y2R mutant L183^4.60A (Homo sapiens, UniProt P49146, L183A); conditions: 1 μM antagonist, source data Fig. 3
# T7 construct: expressed in transfected cells; host or cells: HEK293
# Experimental: as §1, §2, §3, §4
# Y2R mutant Y219^5.38A = target: T8, Y2R mutant Y219^5.38A (Homo sapiens, UniProt P49146, Y219A); conditions: 1 μM antagonist, source data Fig. 3
# T8 construct: expressed in transfected cells; host or cells: HEK293
# Experimental: as §1, §2, §3, §4
# [1] = 1 μM antagonist, source data Fig. 3
# [2] = EC50(NPY + 1 μM antagonist)/EC50(NPY)
# [3] = EC50 ratio (WT)/EC50 ratio (mutant)
# T8 sequence (P49146 whole entry Y219A): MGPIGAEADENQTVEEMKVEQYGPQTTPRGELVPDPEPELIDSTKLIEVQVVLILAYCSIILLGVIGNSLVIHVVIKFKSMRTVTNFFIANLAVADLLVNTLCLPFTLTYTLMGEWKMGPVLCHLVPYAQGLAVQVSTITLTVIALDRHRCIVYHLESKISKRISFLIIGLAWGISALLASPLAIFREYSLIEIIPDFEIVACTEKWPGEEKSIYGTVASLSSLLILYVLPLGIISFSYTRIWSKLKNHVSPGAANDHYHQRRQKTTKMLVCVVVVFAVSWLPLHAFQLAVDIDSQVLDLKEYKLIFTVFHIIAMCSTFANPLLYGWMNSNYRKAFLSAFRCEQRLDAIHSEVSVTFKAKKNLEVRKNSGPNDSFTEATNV
# T3 sequence (P49146 whole entry S223A): as the sequence (P49146 whole entry Y219A) above, with A219Y, S223A counted along it
# T5 sequence (P49146 whole entry Y110A): as the sequence (P49146 whole entry Y219A) above, with Y110A, A219Y counted along it
# T7 sequence (P49146 whole entry L183A): as the sequence (P49146 whole entry Y219A) above, with L183A, A219Y counted along it
structure (smiles),measurement,setting,value
N=C(N)NCCC[C@H](NC(=O)CC1(CC(=O)N2CCN(C3c4ccccc4NC(=O)c4ccccc43)CC2)CCCC1)C(=O)NCCn1c(=O)n(-c2ccccc2)n(-c2ccccc2)c1=O (some centres unmarked) [BIIE0246],Average EC50 ratio,Y2R mutant T308^7.36A; [1],233.8
same,EC50 ratio (individual experiments),Y2R mutant T308^7.36A; [1],248.2 and 219.5
same,EC50 ratio,Y2R mutant T308^7.36A; [2],248 and 219
same,Ratio change (fold),Y2R mutant T308^7.36A; [3],0.6 fold and 0.7 fold
same,Average EC50 ratio,Y2R mutant D292^6.59N; [1],66.7
same,EC50 ratio (individual experiments),Y2R mutant D292^6.59N; [1],70.5 and 62.9
same,EC50 ratio,Y2R mutant D292^6.59N; [2],71 and 63
same,Average EC50 ratio,Y2R mutant S223^5.42A,168.7
same,EC50 ratio (individual experiments),Y2R mutant S223^5.42A,275.8 and 61.6
same,Average EC50 ratio,Y2R mutant V134^3.36A; [1],81.8
same,EC50 ratio (individual experiments),Y2R mutant V134^3.36A; [1],76.2 and 87.4
same,EC50 ratio,Y2R mutant V134^3.36A; [2],76 and 87
same,Ratio change (fold),Y2R mutant V134^3.36A; [3],2 fold and 1.8 fold
same,Average EC50 ratio,Y2R mutant Y110^2.64A,47.6
same,EC50 ratio (individual experiments),Y2R mutant Y110^2.64A,25.1 and 70.1
same,Average EC50 ratio,Y2R mutant W281^6.48T; [1],2.6
same,EC50 ratio (individual experiments),Y2R mutant W281^6.48T; [1],3.3 and 2.0
same,EC50 ratio,Y2R mutant W281^6.48T; [2],3 and 2
same,Ratio change (fold),Y2R mutant W281^6.48T; [3],48 fold and 80 fold
same,Average EC50 ratio,Y2R mutant L183^4.60A,10.3
same,EC50 ratio (individual experiments),Y2R mutant L183^4.60A,6.3 and 14.3
same,Average EC50 ratio,Y2R mutant Y219^5.38A,97.9
same,EC50 ratio (individual experiments),Y2R mutant Y219^5.38A,48.6 and 147.2
